Measured values published in US9290507B2, “B-RAF kinase inhibitors” (Boehringer Ingelheim International GmbH, priority 2010, dated 2016).

Target: B-Raf (V600E)-kinase (Homo sapiens (Human), UniProt P15056, V600E)
Experiment: Kinase test B-Raf (V600E)
Assay type: biochemical
Details: 1 h preincubation, 250 μM ATP
Procedure: In a dilution series 10 μL/well of test substance solution are placed in a multiwell plate. The dilution series is selected so that generally a range of concentrations of 2 μM to 0.119 nM or 0.017 nM is covered. If necessary the initial concentration of 2 μM is changed to 50 μM, 10 μM or 0.4 μM or 0.2857 μM and further dilution is carried out accordingly. The final concentration of DMSO is 5%. 10 μL/well of the B-Raf (V600E)-kinase solution are pipetted in (containing 0.5 ng B-Raf (V600E)-kinase (e.g. from Upstate) in 20 mM Tris-HCl pH 7.5, 0.1 mM EDTA, 0.1 mM EGTA, 0.286 mM sodium orthovanadate, 10% glycerol, 1 mg/mL bovine serum albumin, 1 mM dithiothreitol) and the mixture is incubated for 1 h at RT under with shaking. The kinase reaction is started by the addition of 20 μL/well ATP solution [final concentration: 250 μM ATP, 30 mM Tris-HCl pH 7.5, 0.02% Brij, 0.2 mM sodium orthovanadate, 10 mM magnesium acetate, 0.1 mM EGTA, phosphatase cocktail (Sigma, #P2850, dilution recommended by the manufacturer)] and 10 μL/well MEK1 solution [containing 50 ng biotinylated MEK1 (prepared from purified MEK1 according to standard procedure, e.g. with EZ-Link Sulpho-NHS-LC-Biotin reagent, Pierce, #21335)] and carried out for 60 min at RT with constant shaking. The reaction is stopped by the addition of 12 μL/well of a 100 mM EDTA solution and incubation is continued for a further 5 min. 55 μL/well of the reaction solution are transferred into a streptavidin-coated plate (e.g. Streptawell HighBond, Roche, #11989685001) and shaken gently for 1 h at RT, in order to bind biotinylated MEK1 to the plate. After elimination of the liquid the plate is washed five times with 200 μL/well of 1×PBS and 100 μL/well solution of primary antibody plus europium-labelled secondary antibody [Anti Phospho-MEK (Ser217/221), Cell Signaling, #9121 and Eu-N1 labelled goat-anti-rabbit antibody, Perkin Elmer, #AD0105] is added, the primary antibody is diluted 1:2000 and the secondary antibody is diluted to 0.4-0.5 μg/mL in Delfia Assay Buffer (Perkin Elmer, #1244-111). After 1 h shaking at RT the solution is poured away and washed five times with 200 μL/well Delfia Wash Buffer (Perkin Elmer, #4010-0010/#1244-114). After the addition of 200 μL/well Enhancement Solution (Perkin Elmer, #4001-0010/#1244-105) the mixture is shaken for 10 min at RT and then measured in a Wallac Victor using the program “Delfia Time Resolved Fluorescence (Europium)”. IC50 values are obtained from these dosage-activity curves using a software program (GraphPadPrizm).

Sequence of B-Raf (V600E)-kinase (P15056 whole entry V600E): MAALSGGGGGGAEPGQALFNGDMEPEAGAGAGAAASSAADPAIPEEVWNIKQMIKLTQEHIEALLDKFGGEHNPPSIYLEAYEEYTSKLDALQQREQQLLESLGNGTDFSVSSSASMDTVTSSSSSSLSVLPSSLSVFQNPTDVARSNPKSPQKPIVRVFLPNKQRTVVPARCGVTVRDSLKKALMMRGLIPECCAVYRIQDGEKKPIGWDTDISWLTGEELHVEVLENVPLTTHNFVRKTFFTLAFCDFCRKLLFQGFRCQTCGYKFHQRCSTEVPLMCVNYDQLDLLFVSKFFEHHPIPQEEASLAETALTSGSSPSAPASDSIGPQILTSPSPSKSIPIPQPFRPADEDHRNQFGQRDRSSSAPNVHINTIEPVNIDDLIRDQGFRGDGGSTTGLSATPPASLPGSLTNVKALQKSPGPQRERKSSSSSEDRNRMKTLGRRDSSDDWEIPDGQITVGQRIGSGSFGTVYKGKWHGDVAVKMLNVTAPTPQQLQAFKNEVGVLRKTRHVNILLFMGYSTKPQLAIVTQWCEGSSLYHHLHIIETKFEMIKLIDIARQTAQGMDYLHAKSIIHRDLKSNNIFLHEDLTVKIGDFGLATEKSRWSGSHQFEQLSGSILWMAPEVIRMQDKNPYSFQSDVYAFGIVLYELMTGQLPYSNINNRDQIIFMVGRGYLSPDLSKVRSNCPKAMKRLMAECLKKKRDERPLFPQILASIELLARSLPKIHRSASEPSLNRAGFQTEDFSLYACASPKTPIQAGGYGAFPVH

IC50 [µM]	SMILES
0.009	Cc1ccc(C(=O)Nc2cc(C(C)(C)C)on2)cc1-n1cc(-c2cncc(NCC3CCCO3)c2)nn1 (stereo not drawn) [I-34]
0.006	Cc1ccc(C(=O)Nc2cc(C(C)(C)C)on2)cc1-n1cc(-c2cncc(N3CCC(N4CCN(C)CC4)C3)c2)nn1 (stereo not drawn) [I-89]
0.098	Cc1ccc(C(=O)Nc2cc(C(C)(C)C)on2)cc1-n1cc(-c2cncc(N3CCN(CC(F)(F)F)CC3)c2)nn1 [I-31]
0.018	Cc1ccc(C(=O)Nc2cc(C(C)(C)C)on2)cc1-n1cc(-c2cncc(NC(C)(C)C)c2)nn1 [I-12]
0.002	Cc1ccc(NC(=O)c2ccc(C(C)(C)C)o2)cc1-n1cc(-c2cncc(N3CCN(C)CC3)c2)nn1 [II-15]
0.01	Cc1ccc(C(=O)Nc2cc(C(C)(C)C)on2)cc1-n1cc(-c2cncc(N3CCOCC3)c2)nn1 [I-47]
0.061	Cc1ccc(C(=O)Nc2cc(C(C)(C)C)on2)cc1-n1cc(-c2cncc(N3CCCCC3)c2)nn1 [I-42]
0.018	Cc1ccc(C(=O)Nc2cc(C(C)(C)C)ccn2)cc1-n1cc(-c2cncc(N3CCN(C)CC3)c2)nn1 [I-2]
0.011	Cc1ccc(NC(=O)c2cc(C)n(C(C)(C)C)n2)cc1-n1cc(-c2cncc(N3CCN(C)CC3)c2)nn1 [II-38]
0.008	Cc1ccc(C(=O)Nc2cc(C(C)(C)C)on2)cc1-n1cc(-c2cncc(N3CC(N4CCN(C)CC4)C3)c2)nn1 [I-93]
0.016	Cc1ccc(C(=O)Nc2cc(C(C)(C)C)nn2C)cc1-n1cc(-c2cncc(N3CCN(C)CC3)c2)nn1 [I-55]
0.008	Cc1ccc(C(=O)Nc2cc(C(C)(C)C)on2)cc1-n1cc(-c2cncc(N3CCCN(C)CC3)c2)nn1 [I-91]
0.011	Cc1ccc(C(=O)Nc2cc(C(C)(C)C)on2)cc1-n1cc(-c2cncc(N3CCC3)c2)nn1 [I-19]
0.009	Cc1ccc(C(=O)Nc2cc(C(C)(C)C)on2)cc1-n1cc(-c2cncc(N3CC(C)NC(C)C3)c2)nn1 (stereo not drawn) [I-32]
0.007	Cc1ccc(C(=O)Nc2cc(C(C)(C)C)on2)cc1-n1cc(-c2cncc(N(C)C3CCOCC3)c2)nn1 [I-29]
0.008	Cc1ccc(NC(=O)c2cc(C(C)(C)C)on2)cc1-n1cc(-c2cncc(N3CCOCC3)c2)nn1 [II-5]
0.038	Cc1ccc(C(=O)Nc2cc(C(C)(C)C)on2)cc1-n1cc(-c2cncc(NC3CCCC3)c2)nn1 [I-43]
0.019	Cc1ccc(C(=O)Nc2cc(C(C)(C)C)nn2C)cc1-n1cc(-c2cncc(N3CCOCC3)c2)nn1 [I-24]
0.01	Cc1ccc(C(=O)Nc2cc(C(C)(C)C)on2)cc1-n1cc(-c2cncc(NC3CC3)c2)nn1 [I-28]
0.017	Cc1ccc(C(=O)Nc2cc(C(C)(C)C)on2)cc1-n1cc(-c2cncc(NC(C)C)c2)nn1 [I-14]
0.013	Cc1ccc(C(=O)Nc2cc(C(C)(C)C)on2)cc1-n1cc(-c2cncc(N(C)C)c2)nn1 [I-18]
0.029	COCCN1C(C)CN(c2cncc(-c3cn(-c4cc(C(=O)Nc5cc(C(C)(C)C)on5)ccc4C)nn3)c2)CC1C (stereo not drawn) [I-45]
0.01	Cc1ccc(C(=O)Nc2cc(C(C)(C)C)on2)cc1-n1cc(-c2cncc(N3CCC(N4CCN(C)CC4)CC3)c2)nn1 [I-90]
0.026	Cc1ccc(C(=O)Nc2cc(C(C)(C)C)on2)cc1-n1cc(-c2cncc(N3C[C@@H](C)O[C@@H](C)C3)c2)nn1 [I-23]
0.022	Cc1ccc(C(=O)Nc2cc(C(C)(C)C)on2)cc1-n1cc(-c2cncc(N3CCN(CC4CCCO4)CC3)c2)nn1 (stereo not drawn) [I-8]
0.008	CCCN1CCN(c2cncc(-c3cn(-c4cc(C(=O)Nc5cc(C(C)(C)C)on5)ccc4C)nn3)c2)CC1 [I-41]
0.045	Cc1ccc(C(=O)Nc2cc(C(C)(C)C)on2)cc1-n1cc(-c2cncc(N(C)CC3CCCO3)c2)nn1 (stereo not drawn) [I-25]
0.029	CCOCCN1CCN(c2cncc(-c3cn(-c4cc(C(=O)Nc5cc(C(C)(C)C)on5)ccc4C)nn3)c2)CC1 [I-49]

Continued, molecule first:

SMILES	IC50 [µM]
Cc1ccc(NC(=O)c2ccc(C(C)(C)C)o2)cc1-n1cc(-c2cncc(N3CCN(C(C)(C)C)CC3)c2)nn1 [II-3]	0.003
Cc1ccc(NC(=O)c2cc(CN(C)C)c(C(C)(C)C)o2)cc1-n1cc(-c2cncc(N3CCOCC3)c2)nn1 [II-44]	0.011
Cc1ccc(NC(=O)c2cc(CN3CCCC3)c(C(C)(C)C)o2)cc1-n1cc(-c2cncc(N3CCOCC3)c2)nn1 [II-10]	0.011
Cc1ccc(NC(=O)c2ccc(C(C)(C)C)s2)cc1-n1cc(-c2cncc(N3CCOCC3)c2)nn1 [II-11]	0.01
COCC(C)Nc1cncc(-c2cn(-c3cc(C(=O)Nc4cc(C(C)(C)C)on4)ccc3C)nn2)c1 (stereo not drawn) [I-20]	0.031
Cc1ccc(NC(=O)c2cc(CNC(C)(C)C)c(C(C)(C)C)o2)cc1-n1cc(-c2cncc(N3CCOCC3)c2)nn1 [II-40]	0.011
Cc1ccc(C(=O)Nc2cc(C(F)(F)F)ccn2)cc1-n1cc(-c2cncc(N(C)CCN3CCCC3)c2)nn1 [I-65]	0.009
Cc1ccc(NC(=O)c2cc(C(F)(F)F)ccn2)cc1-n1cc(-c2cncc(N3CCN(C)CC3)c2)nn1 [II-7]	0.004
Cc1ccc(NC(=O)c2cc(CNCCN(C)C)c(C(C)(C)C)o2)cc1-n1cc(-c2cncc(N3CCOCC3)c2)nn1 [II-45]	0.01
Cc1ccc(NC(=O)c2cc(C(C)(C)C)oc2C)cc1-n1cc(-c2cncc(N3CCOCC3)c2)nn1 [II-12]	0.015
Cc1ccc(C(=O)Nc2cc(C(C)(C)C)on2)cc1-n1cc(-c2cncc(NCC(F)F)c2)nn1 [I-54]	0.051
Cc1ccc(C(=O)Nc2cc(C(F)(F)F)ccn2)cc1-n1cc(-c2cncc(N(C)CCN(C)C)c2)nn1 [I-86]	0.01
Cc1ccc(NC(=O)c2cc(C(F)(F)F)ccn2)cc1-n1cc(-c2cncc(N3CCOCC3)c2)nn1 [II-1]	0.009
Cc1ccc(NC(=O)c2ccc(C(C)(C)C)o2)cc1-n1cc(-c2cncc(N3CCN(CC(C)C)CC3)c2)nn1 [II-19]	0.005
CCN1CCN(c2cncc(-c3cn(-c4cc(NC(=O)c5ccc(C(C)(C)C)o5)ccc4C)nn3)c2)CC1 [II-14]	0.003
Cc1ccc(NC(=O)c2cc(CN(C)CCN(C)C)c(C(C)(C)C)o2)cc1-n1cc(-c2cncc(N3CCOCC3)c2)nn1 [II-43]	0.036

SMILES	IC50 [µM]
Cc1ccc(NC(=O)c2ccc(C(C)(C)C)s2)cc1-n1cc(-c2cncc(N3CCN(C(C)(C)C)CC3)c2)nn1 [II-29]	0.01
COCCCN1CCN(c2cncc(-c3cn(-c4cc(NC(=O)c5ccc(C(C)(C)C)o5)ccc4C)nn3)c2)CC1 [II-17]	0.001
Cc1ccc(NC(=O)c2cc(C)n(C(C)(C)C)n2)cc1-n1cc(-c2cncc(N3CCCN(C)CC3)c2)nn1 [II-39]	0.009
Cc1ccc(C(=O)Nc2cc(C(F)(F)F)ccn2)cc1-n1cc(-c2cncc(N3CCOCC3)c2)nn1 [I-72]	0.012
CCOCCN1CCN(c2cncc(-c3cn(-c4cc(NC(=O)c5ccc(C(C)(C)C)o5)ccc4C)nn3)c2)CC1 [II-22]	0.007
Cc1ccc(NC(=O)c2ccc(C(C)(C)C)o2)cc1-n1cc(-c2cncc(N3CCOCC3)c2)nn1 [II-13]	0.009
Cc1ccc(NC(=O)c2ccc(C(C)(C)C)o2)cc1-n1cc(-c2cncc(N3CCN(CC4CC4)CC3)c2)nn1 [II-16]	0.002
Cc1ccc(C(=O)Nc2cc(C(F)(F)F)ccn2)cc1-n1cc(-c2cncc(N3CCNCC3)c2)nn1 [I-77]	0.005
Cc1ccc(C(=O)Nc2cc(C(C)(C)C)n[nH]2)cc1-n1cc(-c2cncc(N3CCOCC3)c2)nn1 [I-13]	0.012
COCCN(C)c1cncc(-c2cn(-c3cc(C(=O)Nc4cc(C(F)(F)F)ccn4)ccc3C)nn2)c1 [I-73]	0.034
C=CCN1CCN(c2cncc(-c3cn(-c4cc(NC(=O)c5ccc(C(C)(C)C)o5)ccc4C)nn3)c2)CC1 [II-18]	0.005
Cc1ccc(NC(=O)c2cc(C(C)(C)C)nn2C)cc1-n1cc(-c2cncc(N3CCOCC3)c2)nn1 [II-4]	0.011
Cc1ccc(C(=O)Nc2cc(C(F)(F)F)ccn2)cc1-n1cc(-c2cncc(N3CCN(C(C)C)CC3)c2)nn1 [I-88]	0.008
Cc1ccc(C(=O)Nc2cc(C(F)(F)F)ccn2)cc1-n1cc(-c2cncc(N(C)C3CCOC3)c2)nn1 (stereo not drawn) [I-68]	0.007
Cc1ccc(C(=O)Nc2cc(C(F)(F)F)ccn2)cc1-n1cc(-c2cncc(NCCN(C)C)c2)nn1 [I-85]	0.01
Cc1ccc(NC(=O)c2cc(CN3CCN(C)CC3)c(C(C)(C)C)o2)cc1-n1cc(-c2cncc(N3CCOCC3)c2)nn1 [II-42]	0.016
